Reference: US9695167B2, “Substituted triazolo[1,5-a]pyridines and triazolo[1,5-a]pyrazines as LSD1 inhibitors” (Incyte Corporation, priority 2014, dated 2017)

Molecular target: LSD-1 enzyme (LSD1/KDM1A) (Homo sapiens (Human), UniProt O60341)
Assay: biochemical
Protocol: LANCE LSD1/KDM1A demethylase assay—10 μL of 1 nM LSD-1 enzyme (ENZO BML-SE544-0050) in the assay buffer (50 mM Tris, pH 7.5, 0.01% Tween-20, 25 mM NaCl, 5 mM DTT) were preincubated for 1 hour at 25° C. with 0.8 μL compound/DMSO dotted in black 384 well polystyrene plates. […] After stopping the reactions plates were incubated for 30 minutes and read on a PHERAstar FS plate reader (BMG Labtech).

Row | Compound | IC50 [nM]
1 | CN[C@@H]1CCN(Cc2cc(-c3ccc(C#N)cc3)c(-c3ccc(C)cc3)n3ncnc23)C1 [Example 11, 4-[8-{[(3R)-3-(methylamino)pyrrolidin-1-yl]methyl}-5-(4-methylphenyl)[1,2,4]triazolo[1,5-a]pyridin-6-yl]benzonitrile] | < 50
2 | CN[C@H]1CCN(Cc2cc(-c3ccc(C#N)cc3)c(-c3ccc(C)cc3)n3ncnc23)C1 [Example 10, 4-[8-{[(3S)-3-(methylamino)pyrrolidin-1-yl]methyl}-5-(4-methylphenyl)[1,2,4]triazolo[1,5-a]pyridin-6-yl]benzonitrile] | < 50
3 | Cc1ccc(-c2c(-c3ccc(C#N)cc3)cc(CCC3CCNC3)c3ncnn23)cc1 (centres unmarked) [Example 2, 4-[5-(4-methylphenyl)-8-(2-pyrrolidin-3-ylethyl)[1,2,4]triazolo[1,5-a]pyridin-6-yl]benzonitrile] | < 50
4 | Cc1ccc(-c2c(-c3ccc(C#N)cc3)cc(OC[C@@H]3CCNC3)c3ncnn23)cc1 [Example 1, 4-{5-(4-methylphenyl)-8-[(3R)-pyrrolidin-3-ylmethoxy][1,2,4]triazolo[1,5-a]pyridin-6-yl}benzonitrile] | < 50
5 | Cc1ccc(-c2c(-c3ccc(C#N)cc3)nc(OC[C@@H]3CCNC3)c3ncnn23)cc1 [Example 12, 4-{5-(4-methylphenyl)-8-[(3R)-pyrrolidin-3-ylmethoxy][1,2,4]triazolo[1,5-a]pyrazin-6-yl}benzonitrile] | < 50
